Tested on: SW 1271 complex tumor spheroid viability
Experiment: Anticancer human tumor SW 1271 cell line growth inhibition;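 also: spheroids exposed to agents for seven days before readout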;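 as to viability, T/C: percent of DMSO vehicle control luminescence so 100% = vehicle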
Details: for IC50: curve of first compound; for viability, T/C: stronger effect = lower value; active = viability on the fitted dose curve at most 10% of control; inactive = the rest
From the text: Multicellular complex tumor spheroid response to DNA repair inhibitors in combination with DNA-damaging drugs
This study explores the anticancer activities of DNA-damaging drugs and inhibitors of DNA damage repair, both as single agents and in combinations. Complex tumor spheroids comprised of malignant cells, endothelial cells and mesenchymal stem cells served as an in vitro model for human solid tumors. This model system incorporates physiologically relevant features and patient-derived or established malignant cell lines with clinically relevant genetic alterations from many tumor types. Twenty-six patient-derived or established malignant cell lines were evaluated representing sarcoma, melanoma, small cell lung cancer (SCLC), non-small cell lung cancer (NSCLC), as well as bladder, ovarian and pancreatic cancers. The concentration ranges selected for each drug and investigational agent were based upon clinically achievable concentrations if the clinical Cmax of the agent was known.
Compounds. The drugs and compounds olaparib (NSC753686), talazoparib (NSC767125), berzosertib (NSC777718), elimusertib (NSC800525), nedisertib (NSC802822), VX-984 (NSC792969), AZD-1390 (NSC803789), temozolomide (NSC362856), topotecan (NSC609699), trabectedin (NSC813783), staurosporine (NSC755774), and gemcitabine (NSC613327) were obtained from the National Cancer Institute (NCI) Developmental Therapeutics Program Chemical Repository. The FDA-approved anticancer drug set is available from the Developmental Therapeutics Program at https://dtp.cancer.gov/organization/dscb/obtaining/available_plates.htm. […] The stock solutions were prepared in dimethyl sulfoxide (DMSO, Sigma-Aldrich, St. Louis, MO, cat. D2650) at 400-fold the tested concentration and stored at -70 degrees C. Prior to their use, the stock solutions were diluted in fresh medium and the final DMSO concentration in the assay was 0.25% (v/v). All drugs and investigational agents were tested over a range starting from a high concentration at or near the clinical Cmax and decreasing in half-log increments. If the clinical Cmax for an agent had not been determined, the highest concentration tested was 10 microM.
Cell Lines. The patient-derived cancer cell (PDC) lines: 156681-154-R-J1-PDC, 283228-195-R-J1-PDC, 287954-098-R-J1-PDC, 292921-168-R-J2-PDC, 349418-098-R-PDC, 425362-245-T-J1-PDC, 556581-035-R-J1-PDC, and BL0293-F563-PDC were received from the NCI Patient-Derived Models Repository (PDMR, https://pdmr.cancer.gov). The established cell lines HS-SY-2 (RRID:CVCL_8719), MPNST, and SYO-1 (RRID:CVCL_7146) were obtained from the Sloan Kettering Institute. The alveolar soft parts sarcoma cell line ASPS-1 (RRID:CVCL_S738) was established at the NCI and grown from internal seed stocks. The following established cell lines were purchased from the American Type Culture Collection (ATCC, Manassas, VA): G-401 (ATCC, cat. CRL-1441, RRID:CVCL_0270), SW982 (ATCC, cat. HTB-93, RRID:CVCL_1734), VA-ES-BJ (ATCC, cat. CRL-2138, RRID:CVCL_1785), NCI-H719 (ATCC, cat. CRL-5837, RRID:CVCL_1582), NCI-H196 (ATCC, cat. CRL-5823, RRID:CVCL_1509), NCI-H841 (ATCC, cat. CRL-5845, RRID:CVCL_1595), NCI-H1618 (ATCC, cat. CRL-5879, RRID:CVCL_1480), NCI-H1876 (ATCC, cat. CRL-5902, RRID:CVCL_1503), DMS 114 (ATCC, cat. CRL-2066; RRID:CVCL_1174), NCI-H211 (ATCC, cat. CRL-5824; RRID:CVCL_1529), and SW 1271 (ATCC, cat. CRL-2177, RRID:CVCL_1716). The small cell lung cancer cell line COR-L88 was purchased from Sigma-Aldrich (cat. 92031917-1VL, RRID:CVCL_1141). The non-small cell lung cancer cell lines NCI-H226 (RRID:CVCL_1544) and NCI-H322M (RRID:CVCL_1557) were established at the NCI and grown from internal seed stocks. Pooled donor human umbilical vein endothelial cells (HUVEC, Lonza, cat. CC-2519) and human mesenchymal stem cells (hMSC, Lonza, cat. PT-2501) were purchased from Lonza (Walkersville, MD).
Cell Culture. All cells were maintained in an incubator at 37 degrees C and 5% CO2 with 95% humidity. […]

[1] = second compound 0.003 µM, first compound 0.0316 µM
[2] = second compound 0.003 µM, first compound 0.1 µM
[3] = second compound 0.003 µM, first compound 0.316 µM
[4] = second compound 0.003 µM, first compound 1 µM
[5] = second compound 0.003 µM, first compound 3.16 µM
[6] = second compound 0.003 µM, first compound 10 µM
[7] = second compound 0.00949 µM, first compound 0.0316 µM
[8] = second compound 0.00949 µM, first compound 0.1 µM
[9] = second compound 0.00949 µM, first compound 0.316 µM
[10] = second compound 0.00949 µM, first compound 1 µM
[11] = second compound 0.00949 µM, first compound 3.16 µM
[12] = second compound 0.00949 µM, first compound 10 µM
[13] = second compound 0.03 µM, first compound 0.0316 µM
[14] = second compound 0.03 µM, first compound 0.1 µM
[15] = second compound 0.03 µM, first compound 0.316 µM
[16] = second compound 0.03 µM, first compound 1 µM
[17] = second compound 0.03 µM, first compound 3.16 µM
[18] = second compound 0.03 µM, first compound 10 µM
[19] = second compound 0.0949 µM, first compound 0.0316 µM
[20] = second compound 0.0949 µM, first compound 0.1 µM
[21] = second compound 0.0949 µM, first compound 0.316 µM
[22] = second compound 0.0949 µM, first compound 1 µM
[23] = second compound 0.0949 µM, first compound 3.16 µM
[24] = second compound 0.0949 µM, first compound 10 µM
[25] = second compound 0.3 µM, first compound 0.0316 µM
[26] = second compound 0.3 µM, first compound 0.1 µM
[27] = second compound 0.3 µM, first compound 0.316 µM
[28] = second compound 0.3 µM, first compound 1 µM
[29] = second compound 0.3 µM, first compound 3.16 µM
[30] = second compound 0.3 µM, first compound 10 µM

CC1COCCN1c1cc(-c2ccnn2C)c2ccnc(-c3ccn[nH]3)c2n1 (stereo not given) + CC[C@@]1(O)C(=O)OCc2c1cc1n(c2=O)Cc2cc3c(CN(C)C)c(O)ccc3nc2-1
active: viability, T/C [3] 4.59% | viability, T/C [4] 2.3% | viability, T/C [5] 1.84% | viability, T/C [6] 1.92% | viability, T/C [7] 6.62% | viability, T/C [8] 4.56% | viability, T/C [9] 3.33% | viability, T/C [10] 2.14% | viability, T/C [11] 1.49% | viability, T/C [12] 1.95% | viability, T/C [13] 6.54% | viability, T/C [14] 4.67% | viability, T/C [15] 3.37% | viability, T/C [16] 2.33% | viability, T/C [17] 1.73% | viability, T/C [18] 1.79% | viability, T/C [19] 8.42% | viability, T/C [20] 6.2% | viability, T/C [21] 4.79% | viability, T/C [22] 2.58% | viability, T/C [23] 1.54% | viability, T/C [24] 1.64% | viability, T/C [25] 5.08% | viability, T/C [26] 3.04% | viability, T/C [27] 2.79% | viability, T/C [28] 2.96% | viability, T/C [29] 1.02% | viability, T/C [30] 0.73%
< 31.6 nM: IC50 (second compound 0.003 µM) | IC50 (second compound 0.00949 µM) | IC50 (second compound 0.03 µM) | IC50 (second compound 0.0949 µM) | IC50 (second compound 0.3 µM)
inactive: viability, T/C [1] 26% | viability, T/C [2] 11.3%

COc1cc(C)[nH]c(=O)c1CN1CCc2c(Cl)cc(C(OC)C3COC3)c(Cl)c2C1=O (stereo not given) + CC[C@@]1(O)C(=O)OCc2c1cc1n(c2=O)Cc2cc3c(CN(C)C)c(O)ccc3nc2-1
inactive: viability, T/C [1] 90.4% | viability, T/C [2] 94.9% | viability, T/C [3] 93.3% | viability, T/C [4] 93.3% | viability, T/C [5] 85.3% | viability, T/C [6] 75.2% | viability, T/C [7] 73.6% | viability, T/C [8] 70.4% | viability, T/C [9] 69.6% | viability, T/C [10] 57.3% | viability, T/C [11] 64.9% | viability, T/C [12] 56.5% | viability, T/C [13] 29.6% | viability, T/C [14] 28.5% | viability, T/C [15] 34.3% | viability, T/C [16] 31.1% | viability, T/C [17] 32.4% | viability, T/C [18] 31% | viability, T/C [19] 28.8% | viability, T/C [20] 30.5% | viability, T/C [21] 29.5% | viability, T/C [22] 32.5% | viability, T/C [23] 33.1% | viability, T/C [24] 23.5% | viability, T/C [25] 14.2% | viability, T/C [26] 16.1% | viability, T/C [27] 18.8% | viability, T/C [28] 16.7% | viability, T/C [29] 13.7% | viability, T/C [30] 10.9%
> 10000 nM: IC50 (second compound 0.003 µM) | IC50 (second compound 0.00949 µM)
< 31.6 nM: IC50 (second compound 0.03 µM) | IC50 (second compound 0.0949 µM) | IC50 (second compound 0.3 µM)

Cc1cc(C)c(CNC(=O)c2cc(-c3ccc(CN4CCOCC4)cc3)cc3c2cnn3C2CCCC2)c(=O)[nH]1 + CC[C@@]1(O)C(=O)OCc2c1cc1n(c2=O)Cc2cc3c(CN(C)C)c(O)ccc3nc2-1
32.9 nM: IC50 (second compound 0.00949 µM)
2120 nM: IC50 (second compound 0.003 µM)
inactive: viability, T/C [1] 83.2% | viability, T/C [2] 84.7% | viability, T/C [3] 70.6% | viability, T/C [4] 59.8% | viability, T/C [5] 45.5% | viability, T/C [6] 34.9% | viability, T/C [7] 51.3% | viability, T/C [8] 38.2% | viability, T/C [9] 32.5% | viability, T/C [10] 26.9% | viability, T/C [11] 20.4% | viability, T/C [12] 16.3% | viability, T/C [13] 28.2% | viability, T/C [14] 26.4% | viability, T/C [15] 24.4% | viability, T/C [16] 27% | viability, T/C [17] 24.9% | viability, T/C [18] 22.4% | viability, T/C [19] 30.7% | viability, T/C [20] 27% | viability, T/C [21] 27.7% | viability, T/C [22] 25.6% | viability, T/C [23] 23.5% | viability, T/C [24] 22.6% | viability, T/C [25] 15.7% | viability, T/C [26] 12.8% | viability, T/C [27] 11%
< 31.6 nM: IC50 (second compound 0.03 µM) | IC50 (second compound 0.0949 µM) | IC50 (second compound 0.3 µM)
active: viability, T/C [28] 9.77% | viability, T/C [29] 6.12% | viability, T/C [30] 4.56%

[2H]c1nc(C)nc([2H])c1-c1cc(NC[C@@H](C)c2cccc3c(C(=O)NC)ccnc23)ncn1 + CC[C@@]1(O)C(=O)OCc2c1cc1n(c2=O)Cc2cc3c(CN(C)C)c(O)ccc3nc2-1
> 10000 nM: IC50 (second compound 0.003 µM)
inactive: viability, T/C [1] 94.2% | viability, T/C [2] 90.5% | viability, T/C [3] 95.4% | viability, T/C [4] 94.6% | viability, T/C [5] 88.9% | viability, T/C [6] 79.9% | viability, T/C [7] 58.9% | viability, T/C [8] 51.1% | viability, T/C [9] 58.7% | viability, T/C [10] 48.3% | viability, T/C [11] 47.9% | viability, T/C [12] 39.4% | viability, T/C [13] 36.5% | viability, T/C [14] 35.3% | viability, T/C [15] 34.5% | viability, T/C [16] 36.6% | viability, T/C [17] 34.2% | viability, T/C [18] 31.6% | viability, T/C [19] 34% | viability, T/C [20] 32.6% | viability, T/C [21] 30.1% | viability, T/C [22] 31.4% | viability, T/C [23] 33.1% | viability, T/C [24] 26% | viability, T/C [25] 19.9% | viability, T/C [26] 17.5% | viability, T/C [27] 15.1% | viability, T/C [28] 17% | viability, T/C [29] 14.2% | viability, T/C [30] 8.53%
< 31.6 nM: IC50 (second compound 0.03 µM) | IC50 (second compound 0.0949 µM) | IC50 (second compound 0.3 µM)
1350 nM: IC50 (second compound 0.00949 µM)
